According to patent US7109193B2, “Tricyclic diazepines tocolytic oxytocin receptor antagonists” (Wyeth, priority 2001, dated 2006):

Biological target: T1, human vasopressin V2 receptor subtype (Homo sapiens, UniProt P30518)
T1 construct: host or cells: CHO cells (pZeoSV vector)
Assay: Vasopressin binding in Chinese Hamster Ovary cell membranes expressing human vasopressin V2 subtype receptors
Conditions: CHO cell membranes, [3H]arginine vasopressin; for IC50: values in parentheses; for inhibition at 0.1 µM: 100 nM, values without parentheses
Outline: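 Radioligand displacement on membranes from CHO cells stably expressing human V2 receptor, 25 to 50 μg protein/well, in 50 mM Tris-HCl pH 7.4 with MgCl2, BSA and protease inhibitors. [^3H]arginine vasopressin (8 nM working solution) incubated 60 min at room temperature; bound label measured by filtration and scintillation counting.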

T1 sequence (P30518 whole entry): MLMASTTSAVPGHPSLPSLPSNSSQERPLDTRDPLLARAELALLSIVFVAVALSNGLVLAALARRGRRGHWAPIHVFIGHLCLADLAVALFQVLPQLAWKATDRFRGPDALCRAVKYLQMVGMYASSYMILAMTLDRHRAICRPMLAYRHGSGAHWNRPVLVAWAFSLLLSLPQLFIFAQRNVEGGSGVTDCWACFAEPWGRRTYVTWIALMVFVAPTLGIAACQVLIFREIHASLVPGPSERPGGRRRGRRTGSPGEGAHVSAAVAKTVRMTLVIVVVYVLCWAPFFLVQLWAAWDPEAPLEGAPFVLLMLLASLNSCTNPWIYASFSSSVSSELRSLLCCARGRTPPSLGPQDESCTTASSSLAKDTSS

Compound	IC50 [nM]	inhibition at 0.1 µM [%]
COc1cc(-c2ccccc2C)c(Cl)cc1C(=O)N1Cc2ccc(C(=O)N3CCCN(C)CC3)n2Cc2ccccc21 [Example 60, {10-[(6-Chloro-3-methoxy-2′-methyl[1,1′-biphenyl]-4-yl)carbonyl]-10,11-dihydro-5H-pyrrolo[2,1-c][1,4]benzodiazepin-3-yl}(4-methyl-1,4-diazepan-1-yl)methanone]	1200	–
Cc1cc(C(=O)N2Cc3ccc(C(=O)NC(=N)N)n3Cc3ccccc32)ccc1-c1ccccc1C(F)(F)F [Example 8, N-[(10-{[2-methyl-2′-(trifluoromethyl)[1,1′-biphenyl]-4-yl]carbonyl}-10,11-dihydro-5H-pyrrolo[2,1-c][1,4]benzodiazepin-3-yl)carbonyl]guanidine]	1470	–
COc1cc(-c2ccccc2F)c(Cl)cc1C(=O)N1Cc2cccn2Cc2ccccc21 [Example 18B, 10-{[6-Chloro-3-methoxy-2′-fluoro-[1,1′-biphenyl]-4-yl]carbonyl}-10,11-dihydro-5H-pyrrolo[2,1-c][1,4]benzodiazepine]	189	–
COc1cc(-c2ccccc2C)c(Cl)cc1C(=O)N1Cc2ccc(C(=O)N(C)CCN(C)C)n2Cc2ccccc21 [Example 86, 10-[(6-Chloro-3-methoxy-2′-methyl[1,1′-biphenyl]-4-yl)carbonyl]-N-[2-(dimethylamino)ethyl]-N-methyl-10,11-dihydro-5H-pyrrolo[2,1-c][1,4]benzodiazepine-3-carboxamide]	1700	–
COc1cc(C(=O)N2Cc3ccc(C(=O)N(C)CCN(C)C)n3Cc3ccccc32)ccc1-c1ccccc1C [Example 92, N-[2-(Dimethylamino)ethyl]-10-[(2-methoxy-2′-methyl[1,1′-biphenyl]-4-yl)carbonyl]-N-methyl-10,11-dihydro-5H-pyrrolo[2,1-c][1,4]benzodiazepine-3-carboxamide]	–	20
COc1cc(-c2ccccc2C(F)(F)F)c(OC)cc1C(=O)N1Cc2cccn2Cc2ccccc21 [Example 32, 10-{[3,6-Dimethoxy-2′-trifluoromethyl-[1,1′-biphenyl]-4-yl]carbonyl}-10,11-dihydro-5H-pyrrolo[2,1-c][1,4]benzodiazepine]	605	–
Cc1cc(C(=O)N2Cc3ccc(C(=O)N(C)CCN(C)C)n3Cc3ccccc32)ccc1-c1ccccc1C(F)(F)F [Example 85, N-[2-(Dimethylamino)ethyl]-N-methyl-10-{[2-methyl-2′-(trifluoromethyl)[1,1′-biphenyl]-4-yl]carbonyl}-10,11-dihydro-5H-pyrrolo[2,1-c][1,4]benzodiazepine-3-carboxamide]	3130	–
COc1cccc(-c2ccc(C(=O)N3Cc4ccc(C(=O)N(C)CCN(C)C)n4Cc4ccccc43)cc2OC)c1 [Example 95, 10-[(2,3′-Dimethoxy[1,1′-biphenyl]-4-yl)carbonyl]-N-[2-(dimethylamino)ethyl]-N-methyl-10,11-dihydro-5H-pyrrolo[2,1-c][1,4]benzodiazepine-3-carboxamide]	–	13
COc1cc(C(=O)N2Cc3ccc(C(=O)N(C)CCN(C)C)n3Cc3ccccc32)ccc1-c1cccc2ccccc12 [Example 93, N-[2-(Dimethylamino)ethyl]-10-[3-methoxy-4-(1-naphthyl)benzoyl]-N-methyl-10,11-dihydro-5H-pyrrolo[2,1-c][1,4]benzodiazepine-3-carboxamide]	–	36
CN(C)CCN(C)C(=O)c1ccc2n1Cc1ccccc1N(C(=O)c1ccc(-c3cccc4ccccc34)cc1Cl)C2 [Example 96, 10-[2-Chloro-4-(1-naphthyl)benzoyl]-N-[2-(dimethylamino)ethyl]-N-methyl-10,11-dihydro-5H-pyrrolo[2,1-c][1,4]benzodiazepine-3-carboxamide]	–	24
CN(C)CCCNC(=O)c1ccc2n1Cc1ccccc1N(C(=O)c1ccc(-c3cccc4ccccc34)cc1Cl)C2 [Example 83, 10-[2-Chloro-4-(1-naphthyl)benzoyl]-N-[3-(dimethylamino)propyl]-10,11-dihydro-5H-pyrrolo[2,1-c][1,4]benzodiazepine-3-carboxamide]	–	18
COc1ccccc1-c1ccc(C(=O)N2Cc3ccc(C(=O)NCCCN(C)C)n3Cc3ccccc32)cc1OC [Example 81, 10-[(2,2′-Dimethoxy[1,1′-biphenyl]-4-yl)carbonyl]-N-[3-(dimethylamino)propyl]-10,11-dihydro-5H-pyrrolo[2,1-c][1,4]benzodiazepine-3-carboxamide]	–	21

Second part, the compound after the results:

IC50 [nM]	inhibition at 0.1 µM [%]	Compound
1300	–	COc1ccccc1-c1ccc(C(=O)N2Cc3ccc(C(=O)N4CC[C@@H](N(C)C)C4)n3Cc3ccccc32)cc1C [Example 272, [(3R)-3-(Dimethylamino)pyrrolidinyl]{10-[(2′-methoxy-2-methyl[1,1′-biphenyl]-4-yl)carbonyl]-10,11-dihydro-5H-pyrrolo[2,1-c][1,4]benzodiazepin-3-yl}methanone]
788	–	COc1cc(-c2ccccc2C)c(Cl)cc1C(=O)N1Cc2ccc(C(=O)N3CCC(N4CCCCC4)CC3)n2Cc2ccccc21 [Example 110, {10-[(6-Chloro-3-methoxy-2′-methyl[1,1′-biphenyl]-4-yl)carbonyl]-10,11-dihydro-5H-pyrrolo[2,1-c][1,4]benzodiazepin-3-yl}[4-(1-piperidinyl)-1-piperidinyl]methanone]
597	–	COc1cc(-c2ccccc2C)c(Cl)cc1C(=O)N1Cc2ccc(C(=O)N3CCC(N4CCCC4)CC3)n2Cc2ccccc21 [Example 136, {10-[(6-Chloro-3-methoxy-2′-methyl[1,1′-biphenyl]-4-yl)carbonyl]-10,11-dihydro-5H-pyrrolo[2,1-c][1,4]benzodiazepin-3-yl}[4-(1-pyrrolidinyl)-1-piperidinyl]methanone]
–	34	COc1cc(C(=O)N2Cc3ccc(C(=O)N(C)CCCN(C)C)n3Cc3ccccc32)ccc1-c1cccc2ccccc12 [Example 106, N-[3-(Dimethylamino)propyl]-10-[3-methoxy-4-(1-naphthyl)benzoyl]-N-methyl-10,11-dihydro-5H-pyrrolo[2,1-c][1,4]benzodiazepine-3-carboxamide]
1030	–	COc1cc(-c2ccccc2C)c(Cl)cc1C(=O)N1Cc2ccc(C(=O)N(C)CCCN(C)C)n2Cc2ccccc21 [Example 98, 10-[(6-Chloro-3-methoxy-2′-methyl[1,1′-biphenyl]-4-yl)carbonyl]-N-[3-(dimethylamino)propyl]-N-methyl-10,11-dihydro-5H-pyrrolo[2,1-c][1,4]benzodiazepine-3-carboxamide]
508	–	COc1ccccc1-c1ccc(C(=O)N2Cc3ccc(C(=O)N4CCN(CCCN(C)C)CC4)n3Cc3ccccc32)cc1 [Example 246, {4-[3-(Dimethylamino)propyl]-1-piperazinyl}{10-[(2′-methoxy[1,1′-biphenyl]-4-yl)carbonyl]-10,11-dihydro-5H-pyrrolo[2,1-c][1,4]benzodiazepin-3-yl}methanone]
423	–	COc1ccccc1-c1ccc(C(=O)N2Cc3ccc(C(=O)N4CCN(CCCN(C)C)CC4)n3Cc3ccccc32)cc1C [Example 245, {4-[3-(Dimethylamino)propyl]-1-piperazinyl}{10-[(2′-methoxy-2-methyl[1,1′-biphenyl]-4-yl)carbonyl]-10,11-dihydro-5H-pyrrolo[2,1-c][1,4]benzodiazepin-3-yl}methanone]
